Test results taken from the NIST ThermoML archive (doi:10.1016/j.fluid.2004.09.013).

Details: for mass density: Fluid (supercritical or subcritical phases), Vibrating tube method; for vapor or sublimation pressure: Liquid

C/C=C/C [(E)-2-butene]
Details | mass density [kg/m3]
328.22 K, 39992 kPa | 620.09
333.22 K, 1143 kPa | 554.92
333.22 K, 5001 kPa | 564.29
333.22 K, 9997 kPa | 574.58
333.22 K, 15004 kPa | 583.44
333.22 K, 19992 kPa | 591.23
333.22 K, 25005 kPa | 598.27
333.22 K, 30004 kPa | 604.66
333.22 K, 35005 kPa | 610.54
333.22 K, 39985 kPa | 615.98
338.22 K, 1226 kPa | 548.04
338.22 K, 4986 kPa | 557.85
338.22 K, 10000 kPa | 568.81
338.22 K, 15000 kPa | 578.1
338.22 K, 20000 kPa | 586.27
338.22 K, 25000 kPa | 593.57
338.22 K, 29994 kPa | 600.18
338.22 K, 35008 kPa | 606.28
338.22 K, 39996 kPa | 611.89
343.22 K, 1315 kPa | 540.98
343.22 K, 29988 kPa | 595.68
343.22 K, 34990 kPa | 601.95
343.22 K, 39986 kPa | 607.75
343.23 K, 4999 kPa | 551.32
343.23 K, 10003 kPa | 562.95
343.23 K, 14999 kPa | 572.73
343.23 K, 19997 kPa | 581.25
343.23 K, 25007 kPa | 588.85
348.23 K, 1414 kPa | 533.71
348.23 K, 4992 kPa | 544.57
348.23 K, 10005 kPa | 556.98
348.23 K, 14992 kPa | 567.27
348.23 K, 19998 kPa | 576.19
348.23 K, 25013 kPa | 584.1
348.23 K, 29992 kPa | 591.18
348.23 K, 35003 kPa | 597.68
348.23 K, 39996 kPa | 603.63
353.23 K, 1522 kPa | 526.23
353.23 K, 4999 kPa | 537.68
353.23 K, 9984 kPa | 550.87
353.23 K, 14991 kPa | 561.76
353.23 K, 20002 kPa | 571.1
353.23 K, 25003 kPa | 579.31
353.23 K, 30000 kPa | 586.67
353.23 K, 35004 kPa | 593.37
353.23 K, 39995 kPa | 599.51
358.23 K, 1641 kPa | 518.52
358.23 K, 4984 kPa | 530.51
358.23 K, 10005 kPa | 544.73
358.23 K, 14998 kPa | 556.2
358.23 K, 20004 kPa | 565.97
358.23 K, 24987 kPa | 574.48
358.23 K, 29994 kPa | 582.12
358.23 K, 35007 kPa | 589.05
358.23 K, 39996 kPa | 595.37
363.23 K, 1765 kPa | 510.53
363.23 K, 5001 kPa | 523.21
363.23 K, 9988 kPa | 538.37
363.23 K, 14981 kPa | 550.47
363.23 K, 19993 kPa | 560.72
363.23 K, 25001 kPa | 569.62
363.23 K, 30001 kPa | 577.52
363.23 K, 34991 kPa | 584.64
363.23 K, 40008 kPa | 591.18
368.24 K, 1900 kPa | 502.25
368.24 K, 4996 kPa | 515.59
368.24 K, 9996 kPa | 531.94
368.24 K, 14998 kPa | 544.78
368.24 K, 19997 kPa | 555.48
368.24 K, 25002 kPa | 564.74
368.24 K, 29994 kPa | 572.92
368.24 K, 35003 kPa | 580.31
368.24 K, 39988 kPa | 587
373.23 K, 2021 kPa | 493.52
373.23 K, 4987 kPa | 507.69
373.23 K, 9991 kPa | 525.4
373.23 K, 14991 kPa | 538.98
373.23 K, 19999 kPa | 550.26
373.24 K, 24990 kPa | 559.83
373.24 K, 29992 kPa | 568.32
373.24 K, 34981 kPa | 575.91
373.24 K, 39982 kPa | 582.83
378.24 K, 2209 kPa | 484.69
378.24 K, 5019 kPa | 499.59
378.24 K, 10006 kPa | 518.69
378.24 K, 14990 kPa | 533.06
378.24 K, 20005 kPa | 544.87
378.24 K, 25019 kPa | 554.94
378.24 K, 30003 kPa | 563.71
378.24 K, 34996 kPa | 571.57
378.24 K, 40001 kPa | 578.7
383.24 K, 2379 kPa | 475.33
383.24 K, 5004 kPa | 490.95
383.24 K, 10000 kPa | 511.79
383.24 K, 14991 kPa | 527.07
383.24 K, 19991 kPa | 539.46
383.24 K, 24987 kPa | 549.92
383.24 K, 30002 kPa | 559.07
383.24 K, 34999 kPa | 567.19
383.24 K, 39984 kPa | 574.5
388.24 K, 2560 kPa | 465.51
388.24 K, 4995 kPa | 481.89
388.24 K, 9989 kPa | 504.7
388.24 K, 15004 kPa | 521.06
388.24 K, 20002 kPa | 534.05
388.24 K, 25003 kPa | 544.95
388.24 K, 29994 kPa | 554.4
388.24 K, 34999 kPa | 562.8
388.24 K, 39985 kPa | 570.33

Details | vapor or sublimation pressure [kPa]
336.87 K | 680.67
345.89 K | 842.53
354.94 K | 1035.4
363.31 K | 1235
372.35 K | 1486.5
376.81 K | 1618.2
381.64 K | 1778.4
385.75 K | 1920.4
